Measured values: patent US20090281049A1, “New use of ginsenoside compound-k in manufacturing medicaments” (priority 2006, published 2009)

Columns and labels:
[1] = test system: carrageenan-induced acute inflammation in mice; test: Carrageenan-induced paw edema in mice; format: in vivo, Kunming mice
[2] = test system: Adjuvant Arthritis in rats; test: Preventive effect on adjuvant induced adjuvant arthritis in rats; format: in vivo, Rat, SD strain
Procedure: Freund's Adjuvant Complete, purchased from Sigma Company, was injected into the plantar surface of the right hind paw by 0.1 ml in order to induce inflammation in rats.
Animals were firstly divided into large dose group: 10 mg/kg, iv, medium dose group: 5 mg/kg, iv, small dose group: 2.5 mg/kg, iv, Indomethacin group: 1 mg/kg, po, Tripterygium Wilfordii Hook group: 1.5 mg/kg, po and blank control group: physiological saline 10 mg/kg, iv. The volume of the right hind paw of the rats was measured by using hydroplethismometer before inflammation induced. Then 0.1 ml Freund's Adjuvant Complete was injected into the plantar surface of the right hind paw in order to induce inflammation in rats. The rats were grouped by the foregoing division way in the succeeding day, and to be administered for 15 days. The volume of paw was measured in regular intervals. Swell rate and inhibition rate were calculated by the same method as the foregoing. Differences among groups were compared by t test.

CC(C)=CCC[C@](C)(O[C@@H]1O[C@H](CO)[C@@H](O)[C@H](O)[C@H]1O)[C@H]1CC[C@]2(C)[C@@H]1[C@H](O)C[C@@H]1[C@@]3(C)CC[C@H](O)C(C)(C)[C@@H]3CC[C@]12C [Ginsenoside Compound-K, ginsenoside Compound-K]
swell value ([1]; 2.5 mg/kg iv, 0 h): 1.49 ± 0.15 mL
inhibition rate ([1]; 2.5 mg/kg iv, 1 h): <14.70> %
swell rate ([1]; 2.5 mg/kg iv, 1 h): (66.63 ± 7.82) %
swell value ([1]; 2.5 mg/kg iv, 1 h): 2.36 ± 0.22 mL
inhibition rate ([1]; 2.5 mg/kg iv, 2 h): <12.30> %
swell rate ([1]; 2.5 mg/kg iv, 2 h): (64.26 ± 14.54) %
swell value ([1]; 2.5 mg/kg iv, 2 h): 2.43 ± 0.23 mL
inhibition rate ([1]; 2.5 mg/kg iv, 4 h): <29.40> %
swell rate ([1]; 2.5 mg/kg iv, 4 h): (61.75 ± 11.27) %
swell value ([1]; 2.5 mg/kg iv, 4 h): 2.33 ± 0.17 mL
inhibition rate ([1]; 2.5 mg/kg iv, 6 h): <31.64> %
swell rate ([1]; 2.5 mg/kg iv, 6 h): (53.48 ± 11.12) %
swell value ([1]; 2.5 mg/kg iv, 6 h): 2.22 ± 0.15 mL
swell value ([1]; 5 mg/kg iv, 0 h): 1.47 ± 0.13 mL
inhibition rate ([1]; 5 mg/kg iv, 1 h): <11.33> %
swell rate ([1]; 5 mg/kg iv, 1 h): (60.97 ± 18.09) %
swell value ([1]; 5 mg/kg iv, 1 h): 2.36 ± 0.23 mL
inhibition rate ([1]; 5 mg/kg iv, 2 h): <16.08> %
swell rate ([1]; 5 mg/kg iv, 2 h): (60.97 ± 18.41) %
swell value ([1]; 5 mg/kg iv, 2 h): 2.35 ± 0.16 mL
inhibition rate ([1]; 5 mg/kg iv, 4 h): <44.03> %
swell rate ([1]; 5 mg/kg iv, 4 h): (45.04 ± 18.30) %
swell value ([1]; 5 mg/kg iv, 4 h): 2.12 ± 0.22 mL
inhibition rate ([1]; 5 mg/kg iv, 6 h): <31.98> %
swell rate ([1]; 5 mg/kg iv, 6 h): (49.81 ± 17.26) %
swell value ([1]; 5 mg/kg iv, 6 h): 2.19 ± 0.19 mL
swell value ([1]; 10 mg/kg iv, 0 h): 1.56 ± 0.17 mL
inhibition rate ([1]; 10 mg/kg iv, 1 h): <40.64> %
swell rate ([1]; 10 mg/kg iv, 1 h): (40.81 ± 10.14) %
swell value ([1]; 10 mg/kg iv, 1 h): 2.18 ± 0.18 mL
inhibition rate ([1]; 10 mg/kg iv, 2 h): <42.79> %
swell rate ([1]; 10 mg/kg iv, 2 h): (41.56 ± 13.38) %
swell value ([1]; 10 mg/kg iv, 2 h): 2.19 ± 0.20 mL
inhibition rate ([1]; 10 mg/kg iv, 4 h): <65.66> %
swell rate ([1]; 10 mg/kg iv, 4 h): (27.64 ± 8.46) %
swell value ([1]; 10 mg/kg iv, 4 h): 1.98 ± 0.20 mL
inhibition rate ([1]; 10 mg/kg iv, 6 h): <67.80> %
swell rate ([1]; 10 mg/kg iv, 6 h): (23.58 ± 15.23) %
swell value ([1]; 10 mg/kg iv, 6 h): 1.91 ± 0.22 mL
overall effect on carrageenan-induced acute inflammation ([1]; mice, 10, 5, 2.5 mg/kg iv): able to inhibit carrageenan-induced acute inflammation in mice obviously
swell value ([2]; 2.5 mg/kg iv, 0 day): 1.24 ± 0.08 mL
inhibition rate ([2]; 2.5 mg/kg iv, 2 day): <21.71> %
swell rate ([2]; 2.5 mg/kg iv, 2 day): (56.65 ± 17.83) %
swell value ([2]; 2.5 mg/kg iv, 2 day): 2.14 ± 0.15 mL
inhibition rate ([2]; 2.5 mg/kg iv, 4 day): <18.33> %
swell rate ([2]; 2.5 mg/kg iv, 4 day): (73.11 ± 15.82) %
swell value ([2]; 2.5 mg/kg iv, 4 day): 2.14 ± 0.15 mL
inhibition rate ([2]; 2.5 mg/kg iv, 6 day): <20.67> %
swell rate ([2]; 2.5 mg/kg iv, 6 day): (70.87 ± 14.91) %
swell value ([2]; 2.5 mg/kg iv, 6 day): 2.11 ± 0.10 mL
inhibition rate ([2]; 2.5 mg/kg iv, 9 day): <20.95> %
swell rate ([2]; 2.5 mg/kg iv, 9 day): (57.25 ± 14.42) %
swell value ([2]; 2.5 mg/kg iv, 9 day): 1.95 ± 0.17 mL
inhibition rate ([2]; 2.5 mg/kg iv, 11 day): <20.82> %
swell rate ([2]; 2.5 mg/kg iv, 11 day): (61.69 ± 21.61) %
swell value ([2]; 2.5 mg/kg iv, 11 day): 2.00 ± 0.26 mL
inhibition rate ([2]; 2.5 mg/kg iv, 13 day): <25.97> %
swell rate ([2]; 2.5 mg/kg iv, 13 day): (61.24 ± 13.26) %
swell value ([2]; 2.5 mg/kg iv, 13 day): 2.00 ± 0.15 mL
inhibition rate ([2]; 2.5 mg/kg iv, 15 day): <28.05> %
swell rate ([2]; 2.5 mg/kg iv, 15 day): (58.02 ± 15.92) %
swell value ([2]; 2.5 mg/kg iv, 15 day): 1.96 ± 0.20 mL
swell value ([2]; 5 mg/kg iv, 0 day): 1.25 ± 0.06 mL
inhibition rate ([2]; 5 mg/kg iv, 2 day): <35.56> %
swell rate ([2]; 5 mg/kg iv, 2 day): (46.63 ± 11.66) %
swell value ([2]; 5 mg/kg iv, 2 day): 2.10 ± 0.21 mL
inhibition rate ([2]; 5 mg/kg iv, 4 day): <23.65> %
swell rate ([2]; 5 mg/kg iv, 4 day): (68.35 ± 15.68) %
swell value ([2]; 5 mg/kg iv, 4 day): 2.10 ± 0.21 mL
inhibition rate ([2]; 5 mg/kg iv, 6 day): <17.94> %
swell rate ([2]; 5 mg/kg iv, 6 day): (73.31 ± 17.73) %
swell value ([2]; 5 mg/kg iv, 6 day): 2.16 ± 0.18 mL
inhibition rate ([2]; 5 mg/kg iv, 9 day): <20.45> %
swell rate ([2]; 5 mg/kg iv, 9 day): (57.60 ± 13.83) %
swell value ([2]; 5 mg/kg iv, 9 day): 1.97 ± 0.21 mL
inhibition rate ([2]; 5 mg/kg iv, 11 day): <28.37> %
swell rate ([2]; 5 mg/kg iv, 11 day): (55.81 ± 11.54) %
swell value ([2]; 5 mg/kg iv, 11 day): 1.95 ± 0.18 mL
inhibition rate ([2]; 5 mg/kg iv, 13 day): <27.79> %
swell rate ([2]; 5 mg/kg iv, 13 day): (59.74 ± 11.82) %
swell value ([2]; 5 mg/kg iv, 13 day): 2.00 ± 0.18 mL
inhibition rate ([2]; 5 mg/kg iv, 15 day): <29.21> %
swell rate ([2]; 5 mg/kg iv, 15 day): (57.08 ± 14.00) %
swell value ([2]; 5 mg/kg iv, 15 day): 1.96 ± 0.21 mL
swell value ([2]; 10 mg/kg iv, 0 day): 1.29 ± 0.08 mL
inhibition rate ([2]; 10 mg/kg iv, 2 day): <29.48> %
swell rate ([2]; 10 mg/kg iv, 2 day): (51.03 ± 8.03) %
swell value ([2]; 10 mg/kg iv, 2 day): 2.17 ± 0.14 mL
inhibition rate ([2]; 10 mg/kg iv, 4 day): <22.99> %
swell rate ([2]; 10 mg/kg iv, 4 day): (68.94 ± 10.49) %
swell value ([2]; 10 mg/kg iv, 4 day): 2.17 ± 0.14 mL
inhibition rate ([2]; 10 mg/kg iv, 6 day): <19.52> %
swell rate ([2]; 10 mg/kg iv, 6 day): (71.90 ± 9.64%
swell value ([2]; 10 mg/kg iv, 6 day): 2.21 ± 0.15 mL
inhibition rate ([2]; 10 mg/kg iv, 9 day): <19.59> %
swell rate ([2]; 10 mg/kg iv, 9 day): (58.23 ± 11.44) %
swell value ([2]; 10 mg/kg iv, 9 day): 2.03 ± 0.15 mL
inhibition rate ([2]; 10 mg/kg iv, 11 day): <30.08> %
swell rate ([2]; 10 mg/kg iv, 11 day): (54.48 ± 12.39) %
swell value ([2]; 10 mg/kg iv, 11 day): 1.98 ± 0.14 mL
inhibition rate ([2]; 10 mg/kg iv, 13 day): <29.83> %
swell rate ([2]; 10 mg/kg iv, 13 day): (58.04 ± 10.97) %
swell value ([2]; 10 mg/kg iv, 13 day): 2.03 ± 0.13 mL
inhibition rate ([2]; 10 mg/kg iv, 15 day): <31.26> %
swell rate ([2]; 10 mg/kg iv, 15 day): (55.42 ± 14.65) %
swell value ([2]; 10 mg/kg iv, 15 day): 1.99 ± 0.18 mL
overall preventive effect on Adjuvant Arthritis ([2]; rats, 10, 5, 2.5 mg/kg iv for 15 days): able to prevent Adjuvant Arthritis in rats
